Earlier results as cited in patent EP1754488A1, “Methods and compositions for non-viral gene therapy for treatment of hyperproliferative diseases” (Introgen Therapeutics, Inc., priority 1999, dated 2000).
Structures can show the parent of a compound that is named as a salt. *1 amine or outer side, *2 acyl side, *3 side chain or, on linkers, in order; H or OH if unused. Where a SMILES comes first, the peptide text is derived from it. Bridges are numbered along the chain shown (N, C = ends). Roman numbers before positions name the chains, in order. [ ]: non-standard residue; d: D form. Actinocin(9to1) = Cc1c2oc3c(C)ccc(C(=O)[*:1])c3nc-2c(C(=O)[*:2])c(N)c1=O; NMeV = CN[C@H](C(=O)O)C(C)C; Sar = CNCC(=O)O

Columns and labels:
[1] = tested on: multiple myeloma; details: oral administration

Which results are given for Cc1c2oc3c(C)ccc(C(=O)N[C@@H]4C(=O)N[C@H](C(C)C)C(=O)N5CCC[C@H]5C(=O)N(C)CC(=O)N(C)[C@@H](C(C)C)C(=O)O[C@@H]4C)c3nc-2c(C(=O)N[C@@H]2C(=O)N[C@H](C(C)C)C(=O)N3CCC[C@H]3C(=O)N(C)CC(=O)N(C)[C@@H](C(C)C)C(=O)O[C@@H]2C)c(N)c1=O [Actinomycin D] (I: T[dV]P[Sar][NMeV] / II: T[dV]P[Sar][NMeV]; ester I:1-I:C, II:1-II:C; linker I:N-II:N via Actinocin(9to1))?
excreted / detected intact in the urine (in vivo): 10%; excreted intact into the bile (in vivo): Half of the dose

Which half-life of distribution (in vivo) does the source give for COc1cccc2c1C(=O)c1c(O)c3c(c(O)c1C2=O)C[C@@](O)(C(C)=O)C[C@@H]3O[C@H]1C[C@H](N)[C@H](O)[C@H](C)O1 [Daunorubicin, 5,12-Naphthacenedione, (8S-cis)-8-acetyl-10-[(3-amino-2,3,6-trideoxy-a-L-lyxo-hexanopyranosyl)oxy]-7,8,9,10-tetrahydro-6,8,11-trihydroxy-10-methoxy-, hydrochloride] here?
The half-life of distribution was 0.75 h.

For O=NN(CCCl)C(=O)NC1CCCCC1 [Lomustine, 1-(2-chloro-ethyl)-3-cyclohexyl-1 nitrosourea], which “radioactivity excreted in the form of degradation products within 24 hours” value (oral radioactive lomustine, 30 mg/m^2 to 100 mg/m^2) is on record?
Its value is “about half of the radioactivity”.

Which “patients showing a favorable response” value [1] does the source give for N[C@@H](Cc1ccc(N(CCCl)CCCl)cc1)C(=O)O [Melphalan, 4-[bis(2-chloroethyl)amino]-L-phenylalanine] here?
The value was “about one third to one half of the patients”.

With CC[C@]1(O)C[C@@H]2CN(CCc3c([nH]c4ccccc34)[C@@](C(=O)OC)(c3cc4c(cc3OC)N(C)[C@H]3[C@@](O)(C(=O)OC)[C@H](OC(C)=O)[C@]5(CC)C=CCN6CC[C@]43[C@@H]65)C2)C1 [Vinblastine] as the compound, how does the “excreted / detected intact in the urine” value (in vivo) read?
The value was “Approximately 15%”.

What about the “half-life of disappearance from plasma after distribution (first)” value (intravenous injection) of the same compound?
The value was “approximately 1 hours”.

What about the “half-life of disappearance from plasma after distribution (second)” value (intravenous injection) of the same compound?
Its value is about 72000 s.
